Reference: article PMC3993903 (Molecular pharmaceutics, 2014)

Tests used:
Assay type in all cases: cell-based, human
KB-V1 cells = assay: Cytotoxicity; settings: 2 h treatment with 5 or 15 µM, further 46 h in drug-free medium, SRB, mean ± s.d. n = 3
[1] = tested on: drug-resistant cervical cancer cells KB-V1; assay: Cellular uptake by KB-V1 cells; settings: 5 µM, absence or presence of equal molar C8-Tat (5 µM), flow cytometry
KB-3-1 cells = assay: Cytotoxicity; settings: 2 h treatment with 5 or 15 µM, further 46 h in drug-free medium, SRB, mean ± s.d. n = 3

SMILES: COc1cccc2c1C(=O)c1c(O)c3c(c(O)c1C2=O)C[C@@](O)(C(=O)CO)C[C@@H]3O[C@H]1C[C@H](N)[C@H](O)[C@H](C)O1 [Dox, doxorubicin]
- short-term cytotoxicity (cell viability) (KB-V1 cells): not on drug-resistant cells
- intracellular accumulation with or without C8-Tat treatment [1]: almost identical
- short-term cytotoxicity (cell viability) (KB-3-1 cells): toxicity toward drug-sensitive cells
